Values of other authors as cited in patent publication US20030036565A1, “Cancer chemopreventive agents” (WISCONSIN ALUMNI RESEARCH FOUNDATION, priority 2001, published 2003).

System: phase II enzyme synthesis
Conditions: cultured murine hepatoma cells; Wilkinson and Clapper, 1997

induction of phase II enzyme synthesis	SMILES
induce phase II enzyme synthesis	Cc1cc(C(C)(C)C)c(O)c(C(C)(C)C)c1 [BHT, butylated hydroxytoluene]
induce phase II enzyme synthesis	CC(C)(C)c1cc(O)ccc1O [TBHQ, tert-butylhydroquinone]
induce phase II enzyme synthesis	O=c1cc(-c2ccccc2)oc2ccc3ccccc3c12 [β-naphthoflavone]

SMILES	induction of phase II enzyme synthesis
COc1ccc(O)c(C(C)(C)C)c1 [BHA, butylated hydroxyanisole]	induce phase II enzyme synthesis
